Where two headings read alike, the source gives them in different places.

Here are results for one compound from patent publication US6348317B1, “Fluorescent and DNA cleavage properties of peptide/dye conjugates” (The Arizona Board of Regents, priority 1999, dated 2002).

In one assay the target is poly(dG)-poly(dC) 20-mer. In words: Thiazole orange total fluorescence titration with non-target DNA. The following applies: 50 nM TO-ZF or TO; fit to equation 2; read-out: dissociation constant, non-specific binding.
Assay [1] addresses fluorescein labeled GRE2 sequence dsDNA (F-GRE2). In words: Total fluorescence quenching (energy transfer) of fluorescein labeled DNA. It counts as binding. As for the experimental part: Fluorescence Measurements. Steady state fluorescence anisotropy measurements were carried out in 20 mM Tris (pH 7.9), 30 mM NaCl, 20 mM KCl, 1 mM MgCl2, and 5% glycerol. […] DNA samples used were either the non-labeled sequences shown in FIG. 2 or a fluorescein labeled duplex with a sequence matching GRE2 (FIG. 2).
For fluorescein labeled DNA measurements, the excitation wavelength was 491 nm and the emission was recorded at 521 nm with a 1.0 nm slit width. Titrations were performed holding the concentration of fluorescein-labeled DNA constant and increasing the concentration of TO, ZF or TO-ZF as indicated. To correct for the small amount of background fluorescence from TO in these measurements, control experiments were performed in parallel using DNA that was not fluorescein labeled, but was otherwise identical to the labeled DNA fragments. The thiazole orange fluorescence intensity measured in the control experiments was subtracted from the total fluorescence intensity for each data point. Under the excitation conditions of these measurements, the contribution to fluorescence by TO at 521 nm was less than 5% of the maximum fluorescence signal observed in the experiment. Even at the point in the titration where the maximum quenching of fluorescein fluorescence was observed (the point of lowest total fluorescence in the measurement), less than half of the fluorescence was due to TO, and this could accurately be removed by subtraction of the control value. Each point is an average of 60 measurements, and each titration was performed independently three times.
Total fluorescence data were collected in parallel to the anisotropy measurements and were calculated from raw data as the fluorescence intensity in the vertical plane plus two times the fluorescence intensity of the horizontal plane, (TF=Ivv+2Ivh). These values were used to determine the percent of the maximum fluorescence for each point along the titration and fit to equation 2. [formula] […]
Fluorescence changes upon binding of TO, ZF and TO-ZF to GRE containing duplex DNA. Equilibrium binding of the non-labeled zinc finger (ZF), unconjugated thiazole orange (TO) and thiazole orange-zinc finger conjugate (TO-ZF) to fluorescein labeled GRE2 sequence dsDNA was measured by both fluorescence anisotropy and total fluorescence. […] For fluorescein fluorescence, excitation was at 491 nm and emission was detected at 521 nm. […] Changes in the steady-state anisotropy of the fluorescein fluorescence from the labeled GRE sequence containing DNA (F-GRE2) can arise from two sources. […] By comparison, the amino acid zinc finger Xfin-31 was determined to have a dissociation constant of approximately 1 μM, M. S. Lee, et al., FEBS 279:289-294 (1991), whereas, the 66 amino acid zinc finger from GATA-1 has a dissociation constant of 10 nM. […]

Another assay has as its target dsDNA. The following applies: cited from earlier work.

Turning to `CN1C(=Cc2cc[n+](C)c3ccccc23)Sc2ccccc21` [TO, thiazole orange], the Kd at poly(dG)-poly(dC) 20-mer is 2400 nM; in assay [1] (50 nM F-GRE2, interpretation cautioned (many binding sites), read-out: dissociation constant from quenching curve), 2400 nM; at dsDNA (5-fold higher salt concentration, Nygren et al., Biopolymers 1998, read-out: dissociation constant for binding to dsDNA) it was approximately 3000 nM; at dsDNA (Haugland 1996, Netzel et al. 1995, read-out: Kd (moderate affinity DNA binding)), approximately 10000 nM. Besides, the “change in total fluorescein fluorescence over the titration” value in assay [1] (excitation 491 nm, emission 521 nm) was “large decreases in steady state fluorescence”.
